Data on two molecules can be found in article PMC4549706, “Rational Design of Highly Potent and Slow-Binding Cytochrome bc1 Inhibitor as Fungicide by Computational Substitution Optimization” (Scientific Reports, 2015).

Assay [1] has as its system Pseudoperonospora cubensis (Berk. et Curt.). Briefly: In vivo fungus growth inhibitory rate at 200 mg/L, downy mildew. The protocol:
[a] Compounds are named as “series number-site number plus substitution group number” a: -F, b: -Cl, c:
-Br, d: -NO2, e: -CH3, f: -CF3, g: -OCH3, h: -OH, i: -NH2, j: -COOH.
[b] Substitution number and group.
[c] CH is “series 1” and N is “series 2”. […]
Table S2 Fungus growth inhibitory rate of target compounds (200 mg/L).
Comp. No. R X Sphaerotheca fuliginea Pseudoperonospora cubensis

For assay [2], the system named is Sphaerotheca fuliginea (S. fuliginea). Briefly: Greenhouse fungicidal activity, potted cucumber, powdery mildew. The format is in vivo. The conditions noted are these: Podosphaera fuliginea. The protocol: (§1) For a further validation, the controlling efficacy of compound 18 against downy mildew and powdery mildew disease was tested in greenhouse and field models.
(§2) The fungicidal activity of compound 18 against P. cubensis and S. fuliginea was evaluated according to a previously published method[30] and a potted-plant test method was adopted. […]
(§3) Greenhouse Fungicidal Activity
(§4) The fungicidal activity of compound 18 against P. cubensis and S. fuliginea was evaluated according to a previously published method 17 and a potted-plant test method was adopted. Commercial fungicide AZ was evaluated as a control under the same conditions.
(§5) Cucumber seeds were soaked in water for 2 h at 50℃ and then were kept moist for 24 h at 28℃ in an incubator. When the radicles grew to 0.5 cm, the seeds were grown in plastic pots containing a 1:1 (v/v) mixture of vermiculite and peat. At the stage of two leaves, all of the cucumber plants used for inoculations were divided into two groups to test for protective and curative effects. In the protective action, compound 18 and commercial fungicide AZ were sprayed on the leaves before the inoculation. However, the fungal inoculation and chemical spraying are reverse in the […] action.
(§6) In the protective action, compound 18 and commercial fungicide AZ were sprayed with a hand spray on the surface of the seed leaves at concentrations of 200, 100, 50, 25, 12.5, 6.25, 3.125, 1.5625 mg/L. After 2 h, inoculations of P. cubensis and S. fuliginea were carried out by spraying a conidial suspension (concentration […]), which was repeated 4 times.
(§7) After inoculation, the cucumber seedlings were cultured in a culture room at 25±2℃, 70%~80% relative humidity, and 16L:8D photoperiod for 8 d. In the curative action, the fungal inoculation and chemical spraying were reversed with the protective action. Foliar spray with fungicides to inoculated cucumber plants (before disease expression) till near-run-oﬀ was made on the 7th and 15th day after emergence. The fungicidal activity was evaluated when the nontreated cucumber plant fully developed symptoms. The area of inoculated and treated leaves covered by disease symptoms was assessed and compared to that of nontreated ones to determine the average disease index.
(§8) The disease range (i) was visually evaluated on the […]rst true leaf and ranked as a percentage infected area using a rating of 0, 1, 3, 5, 7, or 9, denoting proportions of disease over the whole leaf area of 0%, < 5%, 6–10%, 11–25%, 26–50%, and > 50%, respectively 18.
(§9) The disease index and control effect of compound 18 were calculated via the following […]
(§10) Disease index (%) = ∑(Ni × i)/(N × 9) × 100 […]

The test system of assay [3] is Pseudoperonospora cubensis (P. cubensis). Briefly: Greenhouse fungicidal activity, potted cucumber, downy mildew. The format is in vivo. The protocol:
as §1, §2, §3, §4, §5, §6, §7, §8, §9, §10

For assay [4], the system named is P. cubensis. Kind of assay: Field trial, cucumber naturally infected, downy mildew. Type of assay: in vivo, Pseudoperonospora cubensis. To be noted: 7th day. The protocol:
To further study the potential of compound 18 against powdery mildew and downy mildew, field experiments were conducted during the growing season of summer squash and cucumber. The summer squash plants at a fruiting stage naturally infected by S. fuliginea were used. […] Almost no lesions were observed on the leaves of summer squash. […] Lesions on the leaves of control plants, however, expanded quickly, and intense fungal hyphae could be observed. The curative effect is approximately 64.85% for the AZ-treated (93.75 g.ai/ha) summer squash. In addition, field trials for the treatment of downy mildew of cucumber were also performed. Cucumber plants naturally infected by P. cubensis were used for the study. Fungi on the leaves of control plants expanded quickly and lesions could be observed.
In the field trials, summer squash plants which is naturally infected by S. fuliginea and cucumber plants which is naturally infected by P. cubensis were used.
as §9, §10
Each treatment took up in four plots and was distributed randomly in each […]eld. The relative control effects were assessed after the 7th day of foliar application 18. […]

In brackets after ≈: the same amount, converted by molar mass. Where two headings read alike, the source gives them in different places.

As usually defined, the EC90 is the concentration needed for an effect of 90%.

With `COC=C(C(=O)OC)c1ccccc1CSc1nc2cc(OC)ccc2s1` [Compound 18], the entries for the “Fungus growth inhibitory rate, Pseudoperonospora cubensis” value in assay [1] and in assay [1] (listed as Comp. 18) were “completely inhibited” and 100%, respectively. For the same molecule, the 90% effect concentration (EC90) is 32.9 µg/mL (≈ 81.9 µM) in assay [2] (read-out: curative EC90 against S. fuliginea), 1.89 µg/mL (≈ 4.71 µM) in assay [2] (read-out: protective EC90 against S. fuliginea), 120 µg/mL (≈ 300 µM) in assay [3] (read-out: curative EC90 against P. cubensis) and 4.29 µg/mL (≈ 10.7 µM) in assay [3] (read-out: protective EC90 against P. cubensis). Further, the “curative effect, downy mildew (P. cubensis)” value in assay [4] (60 g.ai/ha) is given as “approximately 82.59%”.

Regarding `CO/C=C(/C(=O)OC)c1ccccc1Oc1cc(Oc2ccccc2C#N)ncn1` [AZ, Azoxystrobin, reference compound], the “Fungus growth inhibitory rate, Pseudoperonospora cubensis” value in assay [1] is reported as 94%. For the same molecule, the concentration for an effect of 90% (EC90) is over 500 µg/mL in assay [2] (greenhouse, cucumber, sprayed after inoculation, read-out: curative EC90 against S. fuliginea); 254 µg/mL (≈ 630 µM) in assay [2] (greenhouse, cucumber, sprayed before inoculation, read-out: protective EC90 against S. fuliginea); 50.7 µg/mL (≈ 126 µM) in assay [3] (greenhouse, cucumber, sprayed after inoculation, read-out: curative EC90 against P. cubensis); 5.36 µg/mL (≈ 13.3 µM) in assay [3] (greenhouse, cucumber, sprayed before inoculation, read-out: protective EC90 against P. cubensis). In assay [4] (75 g.ai/ha), the “curative effect, downy mildew (P. cubensis)” value was 59.59%.
